A short description of series [1]: Cytotoxicity in normal prostatic epithelial RWPE-1 cells. Conditions: human. As to the method: (§1) To identify initial lead(s), we first tested all ten drugs in vitro in human prostate cancer LNCaP and CRPC C4-2 cells to see their growth inhibition effect.
(§2) The LNCaP, C4-2 & RWPE-1 cell lines were provided by Professor Timothy Ratliff (Purdue University Center for Cancer Research, USA). All these cells were and maintained at 37° C. with 5% CO2 atmosphere in a humidified incubator following American Type Culture Collection (ATCC) protocol. LNCaP cells were grown in RPMI-1640 (Gibco) supplemented with 10% FBS (Atlanta Biologics), 20 mM HEPES and 1% penicillin/streptomycin (Invitrogen). C4-2 cells were grown in 4:1 DMEM/F12-K medium (Gibco) supplemented with 10% FBS (Atlanta Biologics), 1% penicillin/streptomycin (Invitrogen), 3 mg/mL sodium bicarbonate, 5 μg/mL insulin, 1.36 ng/mL triiodothyronine, 5 μg/mL transferrin, 0.25 μg/mL biotin and 25 μg/mL adenine. For normal growth, RWPE-1 cells were maintained in Keratinocyte Serum Free Medium (K-SFM) (Invitrogen) supplemented with 0.05 mg/mL bovine pituitary extract (BPE) and 5 ng/mL epidermal growth factor (EGF). […] For experiments, cells were used from 3 to 12 passages from thawing.
(§3) The cell proliferation experiment was carried out by the ‘Cell Titer-Blue Cell Viability Assay,’ In this assay, approximately 5,000 cells/well were seeded in 100 μL growth media in poly-L-lysine coated 96-well plates. Next day, the cells were treated with additional 100 μL of various concentrations of the test compounds or DMSO-growth media as untreated control for 6 days in a humidified incubator at 37° C. and 5% CO2 atmosphere. 10 μL ‘Cell Titer-Blue Reagent’ was added directly to each well after 6 days and the plates were incubated for 3 h at 37° C. to allow cells to convert resazurin to resorufin, and the fluorescent signal was measured at 590 nm using a multiplate ELISA reader (Bio-Tek Synergy HT plate reader, Bio-Tek, Winooski, Vt.). The percentage of viable cells in a compound-treated sample was calculated by considering the absorbance of the DMSO-growth media treated sample as 100%. Data was analysed and IC50 value was calculated using GraphPad Prism Software. All experimental points were done in triplicate and experiments were repeated at least thrice.
(§4) The cell viability assay was performed using a standard methyl thiazolyldiphenyl tetrazolium bromide (MTT) assay. In this assay, approximately 5,000 cells/well were seeded in 100 μL growth media in poly-L-lysine coated 96-well plates. After 1 day of plating, the cells were treated with additional 100 μL of various concentrations of the test compounds or DMSO-growth media as untreated control for 3 days more in a humidified incubator at 37° C. and 5% CO2 atmosphere. After 3 days, the culture medium was replaced with 100 μL of MTT solution (using 1 mg/ml stock in growth media) per well and further incubated at 37° C. for 3-4 h. To dissolve the formazan crystals formed in each well by mitochondrial reductase from live cells, 100 μL DMSO was added in each well and shaked for 30 min at RT using an orbital shaker. The absorbance of each well was measured at 570 nm using a multiplate ELISA reader (Bio-Tek Synergy HT plate reader, Bio-Tek, Winooski, Vt.). The percentage of viable cells in a compound-treated sample was calculated by considering the absorbance of the DMSO-growth media treated sample as 100%. All experimental points were done in triplicate and experiments were repeated at least thrice.

The subject of a further series is LuCaP35CR xenografts. Kind of series: LuCaP35CR patient derived xenograft (PDX) mice model. On the technique in general: In xenograft studies the graft and the host belong to different species.
Another series has as its system RWPE-1 cells. Kind of series: Cytotoxicity in normal prostatic epithelial RWPE-1 cells. Conditions: read-out: cytotoxicity IC50; RWPE-1 normal cells. The method, then: as §1, §2, §3, §4
The subject of series [2] is C4-2 cells. Put plainly: In vitro scratch assay, C4-2 cell migration. In kind it is cell-based, human. Conditions: no treatment 6.5 μm/h. The text has this: (§5) We evaluated effects of the active leads on the cancer cell migration—as most often, prostate cancer cell metastasizes to bone leading to the advanced prostate cancer. We performed the well developed in vitro scratch assay to measure both LNCaP and C4-2 cell's migration in presence of the treatments of all these active synthetic compounds. We calculated the migration speed based on the distance travelled/h. The LNCaP cells with no treatment migrated at a speed of 4.8 μm/h, whereas, treatment with 1, 2, 3 and 4 led to a slower rate (2.2, 3.5, 2.6 and 3.7 μm/h respectively) of migration; almost half of the migration speed as compared to that of the non-treated cells. The C4-2 cells with no treatment migrated at a speed of 6.5 μm/h whereas, treatment with 1, 2, 3 and 4 led to a slower rate (2.4, 3.3, 3.9 and 2.5 μm/h respectively) of migration (FIGS. 3D-3E). Since migration is the first step towards invasion and metastasis of cancer cells 1, 2, 3 and 4 might as well interfere with the metastasis process and lead 1 was found as the most efficient among these based on the migration speed rate in both the cells.

For series [3] the following is noted: mouse liver microsomes, 3 μM, 37° C., 60 min. For orientation: Liver microsomes are vesicles of endoplasmic reticulum, rich in cytochrome P450 enzymes.
Protocol: In this assay, the lead compounds were incubated with the respective microsomes at 37° C. and the incubated mixture was analyzed by LC-MS/MS to quantify the remaining parent molecule.
All the test compounds were incubated in duplicate at 3 μM concentration with mouse and human liver microsomes at 37° C. The reaction mixture contained microsomal enzyme in 100 mM potassium phosphate buffer of pH 7.4. Warfarin and verapamil were used as negative and positive control in this assay. After 0 min and 60 min incubation, aliquots were removed from each experimental and control reaction and mixed with an equal volume of ice-cold Stop Solution (0.3% acetic acid in acetonitrile). The samples were centrifuged to remove precipitated protein, and the supernatants were analyzed by LC-MS/MS to quantify the remaining parent molecule. Data represents % remaining as compared to the time zero concentration as 100%.
Series [4] has as its system C4-2 cells. Put plainly: Cell proliferation / growth inhibition in CRPC C4-2 cells. In kind it is cell-based, human. As to the method:
as §1
We assessed anti-cancer activity of the synthetic molecules in prostate cancer cell lines as well as toxicity of the active molecules in normal human cell line.
as §2, §3

In series [5] the test system is LNCaP cells. Kind of series: In vitro scratch assay, LNCaP cell migration. Conditions: no treatment 4.8 μm/h. In kind it is cell-based, human.
Text: as §5

A further series has as its target T1, androgen receptor (AR) (Homo sapiens, UniProt P10275, T878A).
T1 construct: we performed western blot analysis of LNCaP and C4-2 cells' lysates after treated with the indicated drugs/compounds; endogenous in cells; host or cells: C4-2
Kind of series: Western blot of AR expression in C4-2 cell lysates. In kind it is cell-based. Conditions: C4-2 cells, 1 μM, 24 h, compared to vehicle and other treatments including ABI. (In general: In western blotting, separated proteins are transferred to a membrane and probed.)

Series [6] deals with LNCaP cells. Put plainly: Cell proliferation / growth inhibition in LNCaP cells. In kind it is cell-based. Conditions: Homo sapiens, read-out: growth inhibition IC50.
Protocol: All these cells were and maintained at 37° C. with 5% CO2 atmosphere in a humidified incubator following American Type Culture Collection (ATCC) protocol. LNCaP cells were grown in RPMI-1640 (Gibco) supplemented with 10% FBS (Atlanta Biologics), 20 mM HEPES and 1% penicillin/streptomycin (Invitrogen). […] For experiments, cells were used from 3 to 12 passages from thawing.
Where [7] appears, read: C4-2 cells, read-out: growth inhibition / proliferation IC50.
Where [8] appears, read: Homo sapiens, C4-2, read-out: growth inhibition / proliferation IC50.
The mark [9] stands for this setting: Homo sapiens, C4-2 cells, read-out: growth inhibition / proliferation IC50.

Where two headings read alike, the source gives them in different places. Where only a bound is given, the exact number is not on record here.

T1 sequence (P10275 whole entry T878A): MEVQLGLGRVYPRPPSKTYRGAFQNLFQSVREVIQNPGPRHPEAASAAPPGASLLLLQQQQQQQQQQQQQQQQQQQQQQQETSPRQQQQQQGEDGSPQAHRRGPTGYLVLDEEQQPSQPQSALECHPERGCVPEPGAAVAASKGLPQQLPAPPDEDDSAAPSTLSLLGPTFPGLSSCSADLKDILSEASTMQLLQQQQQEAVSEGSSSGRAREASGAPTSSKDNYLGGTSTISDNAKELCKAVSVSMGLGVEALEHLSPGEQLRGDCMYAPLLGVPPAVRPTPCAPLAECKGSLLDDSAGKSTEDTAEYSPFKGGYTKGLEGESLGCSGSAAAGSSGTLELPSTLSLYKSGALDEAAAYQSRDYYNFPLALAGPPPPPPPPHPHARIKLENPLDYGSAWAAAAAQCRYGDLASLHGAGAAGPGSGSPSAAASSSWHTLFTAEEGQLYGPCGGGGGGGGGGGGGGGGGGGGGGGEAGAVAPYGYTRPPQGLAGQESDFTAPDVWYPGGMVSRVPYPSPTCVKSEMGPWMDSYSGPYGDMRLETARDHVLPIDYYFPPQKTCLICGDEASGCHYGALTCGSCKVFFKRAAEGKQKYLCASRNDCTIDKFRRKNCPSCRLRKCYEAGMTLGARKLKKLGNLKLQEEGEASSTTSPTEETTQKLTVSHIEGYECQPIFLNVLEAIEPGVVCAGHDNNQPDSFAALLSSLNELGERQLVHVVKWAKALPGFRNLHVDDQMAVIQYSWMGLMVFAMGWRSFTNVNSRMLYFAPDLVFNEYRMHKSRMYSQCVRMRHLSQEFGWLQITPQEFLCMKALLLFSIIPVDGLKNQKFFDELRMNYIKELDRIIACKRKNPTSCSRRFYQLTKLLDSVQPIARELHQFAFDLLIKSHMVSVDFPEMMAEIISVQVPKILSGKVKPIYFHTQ
Protocol for androgen receptor (AR): First, 0.5×10^6 cells/well were seeded in 6-well plate coated with 0.01% poly-L-lysine. Next day, cells were treated with 1 μM concentrations of drugs/compounds or 0.01% DMSO-growth media as vehicle control and the treatment was continued for 24 h in a humidified incubator at 37° C. and 5% CO2 atmosphere. Following treatment, cells were washed with cold PBS and lysed in TBSN buffer (20 mmol/L Tris, pH 8.0, 150 mmol/L NaCl, 1.5 mmol/L EDTA, 5 mmol/L EGTA, 0.5% Nonidet P-40, and 0.5 mmol/L Na3VO4) supplemented with 1× protease inhibitor cocktail tablets to obtain cellular lysates. The protein concentration of the whole cell lysate was quantified by Pierce BCA Protein Assay (Thermo Scientific). The lysate was run on 10% SDS-PAGE gel (40 μg of protein per lane) and β-actin (clone 8H10D10, Cell Signaling Technology) was used as a loading control. Proteins were transferred onto PVDF membrane and the nonspecific binding was blocked using 5% milk in PBS-T (0.05% Tween-20 in PBS buffer) for 1 h. […] Protein expression was normalized to β-actin and densitometry was calculated using ImageJ Software.

Take `C[C@]12CC[C@H](O)CC1=CC[C@@H]1[C@@H]2CC[C@]2(C)C(c3cccnc3)=CC[C@@H]12` [ABI, abiraterone, reference compound]: the IC50 in [1] (RWPE-1 normal prostatic epithelial cells) was determined as 7200 nM.
For `C#C[C@@]1(O)CC[C@@H]2[C@H]3[C@@H](CC[C@@]21C)[C@H]1CCC(=O)C=C1C[C@@H]3C` [Compound 1], the average body weight result in the series on LuCaP35CR xenografts (LuCaP35CR mice, over 16 days) was “did not change the average body weight”. Also, in the series with LuCaP35CR xenografts (castrate mice bearing LuCaP35CR xenografts, 10 mg/kg, compared to vehicle), the tumor growth entry is recorded as “suppressed the tumor growth rapidly”. Further, the results for the IC50 with RWPE-1 cells and in the series with C4-2 cells [4] (setting [7]) were 54600 nM and 0.72 nM, respectively. Besides, the migration speed in the series on C4-2 cells [2] was 2.4 μm/h; in the series on LNCaP cells [5] it was 2.2 μm/h. Moreover, the “metabolic stability compared to ABI” value in series [3] was “more stable than the current CRPC drug ABI”. Besides, the “proliferation IC50 compared to ABI, in words” value with C4-2 cells [4] (C4-2 cells) is listed as “much less in C4-2 cells than that of ABI”. Besides, on androgen receptor (AR), the “AR degradation (western blot), in words” value is reported as “degraded AR efficiently”.
`C#C[C@]1(O)CC[C@H]2[C@@H]3CCC4=CC(=O)CC[C@]4(C)[C@H]3CC[C@@]21C` [Compound 2, Ethisterone]: the values for the IC50 (in [1]; with C4-2 cells [4] (setting [8])) were 18300 nM and 11 nM, respectively. The migration speed in the series on C4-2 cells [2] amounted to 3.3 μm/h; in the series with LNCaP cells [5], 3.5 μm/h.
As for `C#C[C@@]1(O)CC[C@@H]2[C@H]3[C@@H](CC[C@@]21C)[C@H]1CCC(=NO)C=C1C[C@H]3C` [Compound 3], the migration speed with C4-2 cells [2] was found to be 3.9 μm/h; with LNCaP cells [5], 2.6 μm/h. Also, the IC50 with C4-2 cells [4] (setting [9]) was < 100 nM.
`C#C[C@]1(O)CC[C@H]2[C@@H]3CCC4=CC(=NO)CC[C@@H]4[C@H]3CC[C@@]21C` [Compound 4]: the migration speed is given as 2.5 μm/h in the series on C4-2 cells [2] and 3.7 μm/h with LNCaP cells [5].
On to `CC[C@@]1(O)CC[C@@H]2[C@H]3[C@@H](CC[C@@]21C)[C@H]1CCC(=O)CC1C[C@@H]3C` (some centres unmarked) [Compound 13], for which the IC50 with RWPE-1 cells is 17800 nM; with C4-2 cells [4] (setting [7]), 3.5 nM.
For `C[C@H]1CC2=CC(=O)CC[C@@H]2[C@@H]2CC[C@@]3(C)[C@H](CC[C@]3(O)C#Cc3ccccc3N)[C@@H]21` [Compound 15], the values for the IC50 in the series with RWPE-1 cells and in the series with C4-2 cells [4] (setting [7]) were 13500 nM and 4.1 nM, respectively.
As to `C#C[C@]1(O)CC[C@H]2[C@@H]3CCC4=CC(=O)CC[C@@H]4[C@H]3CC[C@@]21CC` [LEV, levonorgestrel, reference compound], the IC50 in series [1] was 59700 nM; with LNCaP cells [6] (LNCaP cells) it was 181 nM; in the series with C4-2 cells [4] (setting [9]), 41.8 nM.
In the same order, the values of `C#C[C@]1(O)CC[C@H]2[C@@H]3CCC4=CC(=O)CC[C@@H]4[C@H]3CC[C@@]21C` [NOR, norethisterone, reference compound] are 86300 nM, 32.5 nM and 7.04 nM.
As for `C#C[C@]1(O)CC[C@H]2[C@@H]3[C@H](C)CC4=C(CCC(=O)C4)[C@H]3CC[C@@]21C` [TIB, tibolone, reference compound], the IC50 in [1] was determined as 23300 nM; in the series on LNCaP cells [6] (LNCaP) it was 24.9 nM; in the series on C4-2 cells [4] (setting [8]), 3.12 nM.
